From patent publication US20250051283A1, “THERAPEUTIC COMPOUNDS AND METHODS” (priority 2023, published 2025) come the findings set out here.

Like-named read-outs stand apart in the source and are kept apart here.

In series [1] the target is EV-D68 2A^pro (Enterovirus D68, UniProt A0A097BW19). Kind of series: FRET-based enzymatic assay of EV-D68 2Apro inhibition. The series is classed as biochemical. As for the experimental part:
Protein expression and purification. EV-D68 2A^pro gene from strain US/KY/14-18953 was ordered from Genscript (Piscataway, NJ) in pET28b(+) vector with E. coli codon optimization. 2A^pro gene was subcloned into pE-SUMOstar vector according to the manufacturers protocol. Plasmid encoding WT-2A^pro was transformed into BL21(DE3) competent E. coli cells, and a single colony was picked and used to inoculate 10 mL of L.B. grown supplemented with 50 μg/mL kanamycin at 37° C. at 250 rpm. The 10 mL inoculant was added to 1 L of L.B. with 50 μg/mL kanamycin and grown to an OD600 of 0.8-1.0, cooled to 18° C., then induced using 0.5 mM IPTG. Induced cultures were incubated at 18° C. for an additional 24 h, then harvested and resuspended in lysis buffer (25 mM Tris (pH 7.5); 750 mM NaCl, 2 mM DTT with 0.5 mg/mL lysozyme, 0.5 mM PMSF and 0.02 mg/mL DNase I) and lysed with alternating sonication and French press cycles. The cell debris were removed by centrifugation at 12,000×g for 45 min […]. The supernatant was incubated with Ni-NTA resin for over 2 h at 4° C. on a rotator. The Ni-NTA resin was thoroughly washed with 50 mM imidazole in wash buffer (50 mM Tris (pH 7.5), 150 mM NaCl, and 2 mM DTT); for the SUMO-tagged protein, the protein was directly eluted with 300 mM imidazole; for the nontagged 2A^pro Ni-NTA resin was treated with SUMO Protease 1 to remove the SUMO tag, then 2A^pro was washed off from the column with 10 mM imidazole in wash buffer. The imidazole was removed via dialysis or 10 K molecular weight cut-off centrifugal concentrator spin column. The purity of the protein was confirmed with SDS-PAGE. The protein concentration was determined by classic BCA assay using bovine serum albumin as a standard. EV-D68 3C^pro in pET28b(+) vector was expressed as previously described^10.
Peptide synthesis. The FRET substrate of EV-D68 2A^pro, Dabcyl-KIRIVNT/GPGFGGE-Edans, was synthesized using the Fmoc solid phase synthesis strategy.
Enzymatic assays. The reaction buffer contains 50 mM Tris (pH7.0), 150 mM NaCl, 10% Glycerol, and 2 mM DTT, and the reaction was carried out at 30° C. in Cytation 5 imaging reader (Fisher Scientific) with EX360/40-EM460/40 filter. Reactions were monitored every 90 sec. […] The reaction was initiated by adding 20 μM of FRET substrate, and the reaction was monitored for 2 hours and initial velocity was calculated for the first 30 minutes via linear regression.

Series [2] relates to EV-D68 US/MO/14-18947. Kind of series: CPE assay (neutral red) with EV-D68 US/MO/14-18947 in R.D. cells. The series is classed as cell-based, Enterovirus D68. As to conditions: CPE assay, EV-D68 US/MO/14-18947 in R.D. cells. The method in brief: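 R.D. cells infected (DMEM, 2% FBS, 30 mM MgCl2) for ≥1 h at 33° C before compound addition; CPE read by neutral red uptake ([…], 2 h, A540), plaque reduction under 1.2% avicel overlay, stained after 3 days. EC50 and CC50 (uninfected cells) from dose-response curve fits.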

The test system of series [3] is EV-D68 US/MO/14-18947. The experiment in a line: Secondary plaque reduction assay with EV-D68 US/MO/14-18947. The series is classed as cell-based, Enterovirus D68. The protocol: (§1) Cell lines and viruses. Human rhabdomyosarcoma (R.D., ATCC, CCL-136) cells were maintained at 37° C. in a 5% CO2 atmosphere and cultured in Dulbecco's modified Eagle's medium (DMEM) supplemented with 10% fetal bovine serum (FBS) and 1% penicillin-streptomycin antibiotics. The following reagents were obtained through BEI Resources, NIAID, NIH: Human Enterovirus D68, US/MO/14-18949, NR-49130; Enterovirus D68, US/MO/14-18947, NR-49129; Enterovirus D68, US/IL/14-18952, NR-49131; Enterovirus D68, US/KY/14-18953, NR-49132; Enterovirus D68, US/IL/14-18956, NR-49133.
(§2) Antiviral assays. Cells for antiviral assays were seeded and grown overnight at 37° C. in a 5% CO2 atmosphere for ˜90% confluency the next day. For all infections, cells were washed with PBS containing magnesium and calcium and infected with virus diluted in DMEM with 2% FBS and 30 mM MgCl2. Viruses were incubated for at least 1 h at 33° C. in a 5% CO2 atmosphere, followed by the addition of compound as well as 1% penicillin-streptomycin. […] For cytopathic effect (CPE) assays, cells were stained with 66 µg/mL neutral red for 2 h and neutral red uptake was measured at absorbance 540 nm using a Multiskan FC Microplate Photometer (ThermoFisher Scientific). The EC50 and CC50 values were calculated from best-fit dose response curves using GraphPad Prism. […]

Series [4] deals with EV-D68 US/IL/14-18952 (clade B2). Kind of series: Broad-spectrum antiviral activity (Table 1), US/IL/14-18952. The series is classed as cell-based, Enterovirus D68. Particulars: Enterovirus D, EVD68. The protocol:
as §1, §2

Series [5] has as its system R.D. cells. Kind of series: Cytotoxicity by neutral red uptake in R.D. cells, no viral infection. The series is classed as cell-based, Human. The protocol: as §1
(§3) Antiviral assays. Cells for antiviral assays were seeded and grown overnight at 37° C. in a 5% CO2 atmosphere for ˜90% confluency the next day. For all infections, cells were washed with PBS containing magnesium and calcium and infected with virus diluted in DMEM with 2% FBS and 30 mM MgCl2. Viruses were incubated for at least 1 h at 33° C. in a 5% CO2 atmosphere, followed by the addition of compound as well as 1% penicillin-streptomycin. For CC50 measurements, the experiment was performed similarly but excluded viral infection. For cytopathic effect (CPE) assays, cells were stained with 66 µg/mL neutral red for 2 h and neutral red uptake was measured at absorbance 540 nm using a Multiskan FC Microplate Photometer (ThermoFisher Scientific). The EC50 and CC50 values were calculated from best-fit dose response curves using GraphPad Prism. For plaque reduction assays, an 1.2% avicel microcrystalline cellulose (FMC BioPolymer, Philadelphia, PA) overlay was used and cells were stained after 3 days as previously described^26.

Series [6] deals with EV-D68 US/KY/14-18953 (clade D). Kind of series: Broad-spectrum antiviral activity (Table 1), US/KY/14-18953. The series is classed as cell-based, Enterovirus D68. Particulars: Enterovirus D, EVD68. The protocol: as §1, §2
Series [7] deals with five strains of EV-D68 (B1, B2, and D clades). Kind of series: Broad-spectrum antiviral activity, summary over five EV-D68 strains. The series is classed as cell-based, Enterovirus D68. The protocol: as §1, §2
The subject of series [8] is EV-D68 US/MO/14-18947 (clade B1). Kind of series: Broad-spectrum antiviral activity (Table 1), US/MO/14-18947. The series is classed as cell-based. As to conditions: Enterovirus D, EVD68. The protocol:
as §1, §2

Series [9] is described as follows: Cytotoxicity by neutral red uptake in R.D. cells, no viral infection. The series is classed as cell-based, Human. As to conditions: human, R.D. (rhabdomyosarcoma, ATCC CCL-136) cells, uninfected. The protocol:
as §1, §3

Chain of EV-D68 2A^pro (A0A097BW19 entry or part of it): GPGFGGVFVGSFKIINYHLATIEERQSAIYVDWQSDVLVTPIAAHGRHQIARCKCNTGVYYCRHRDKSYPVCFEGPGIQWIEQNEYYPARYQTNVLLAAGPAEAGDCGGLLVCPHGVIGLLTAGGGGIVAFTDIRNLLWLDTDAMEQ

Consider `CCC(C)[C@H](NC(=O)[C@@H]1[C@H]2CCC[C@H]2CN1C(=O)[C@@H](NC(=O)CC12CC3CC(CC(C3)C1)C2)C(C)(C)C)C(=O)C(=O)NC1CC1` (stereo partly drawn) [Jun11756, (1S,3aR,6aS)-2-((S)-2-(2-((3S,5S,7S)-adamantan-1-yl)acetamido)-3,3-dimethylbutanoyl)-N-((3S,4S)-1-(cyclopropylamino)-4-methyl-1,2-dioxohexan-3-yl)octahydrocyclopenta[c]pyrrole-1-carboxamide], for which the “enzymatic inhibition, in words, relative to the named comparator” value in [1] is “comparable enzymatic inhibition and antiviral activity as Jun8861”. Moreover, the “antiviral activity, in words, relative to the named comparator” value in [2] was “comparable enzymatic inhibition and antiviral activity as Jun8861”. The same compound displayed an EC50 in series [3] of 13.5 nM.
As to `CCC[C@H](NC(=O)[C@@H]1[C@H]2CCC[C@H]2CN1C(=O)[C@@H](NC(=O)[C@@H](NC(=O)c1cnccn1)C1CCCCC1)C(C)(C)C)C(=O)C(=O)NC1CC1` [Telaprevir, reference compound], the results for the EC50 in series [4] and in [6] were 828 ± 107 nM and 209 ± 37.1 nM, respectively. Besides, the CC50 in series [5] stood at 83200 nM.
On to `CC(C)(C)C(NC(=O)CC12CC3CC(CC(C3)C1)C2)C(=O)N1CC2CCCC2C1C(=O)NC(C(=O)C(=O)NC1CC1)C1CCCCC1` [Jun11762, (1S,3aR,6aS)-2-((S)-2-(2-((3S,5S,7S)-adamantan-1-yl)acetamido)-3,3-dimethylbutanoyl)-N—((S)-1-cyclohexyl-3-(cyclopropylamino)-2,3-dioxopropyl)octahydrocyclopenta[c]pyrrole-1-carboxamide], for which the EC50 in series [7] (Enterovirus D, EVD68, read-out: EC50 values over all five strains) is 43 to 269 nM; in series [4] (EV-D68 US/IL/14-18952 (clade B2), read-out: EC50) it was 269 ± 21.9 nM; in series [8] it was 43 ± 3.3 nM. The “fold improvement of EC50 compared to telaprevir” value in series [7] (five EV-D68 strains, versus telaprevir) is 3.1-4.6 fold. Further, in [1], the “enzymatic inhibition, in words, relative to the named comparator” value is “comparable enzymatic inhibition and antiviral activity as Jun8861”. In series [2], the “antiviral activity, in words, relative to the named comparator” value was “comparable enzymatic inhibition and antiviral activity as Jun8861”. The CC50 in series [9] was greater than 150000 nM.
